Data on 27 compounds can be found in patent US11098056B2, “UDP glycosyltransferase inhibitors and methods of use” (GENZYME CORPORATION, priority 2018, dated 2021).

The target in the assay is T1, UGT8 (Homo sapiens, UniProt Q16880).
T1 construct: host or cells: OE19 cells
T1 sequence (Q16880 21-541): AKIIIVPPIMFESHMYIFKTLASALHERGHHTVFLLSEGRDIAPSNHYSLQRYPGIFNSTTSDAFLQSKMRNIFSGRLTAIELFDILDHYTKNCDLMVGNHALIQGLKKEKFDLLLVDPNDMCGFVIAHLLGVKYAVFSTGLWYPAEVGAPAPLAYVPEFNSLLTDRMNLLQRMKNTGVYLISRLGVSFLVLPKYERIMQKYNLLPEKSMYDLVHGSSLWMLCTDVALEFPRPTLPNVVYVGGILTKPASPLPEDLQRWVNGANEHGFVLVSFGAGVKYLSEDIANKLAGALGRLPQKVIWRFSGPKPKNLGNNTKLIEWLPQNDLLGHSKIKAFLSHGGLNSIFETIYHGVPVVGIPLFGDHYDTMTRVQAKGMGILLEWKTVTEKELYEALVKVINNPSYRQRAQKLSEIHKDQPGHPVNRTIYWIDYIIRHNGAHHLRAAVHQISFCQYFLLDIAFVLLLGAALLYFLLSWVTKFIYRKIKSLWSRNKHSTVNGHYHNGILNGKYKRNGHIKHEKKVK
The assay is described as follows: In vitro sulfatide (SFT) synthesis inhibition in OE19 cells, LC-MS/MS readout. It counts as cell-based. To be noted: 72 hr, sulfatide by LC-MS/MS, read-out: Potency range (IC50, In-vitro SFT). In short, it runs like this:
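OE19 cells, 2,500/well, exposed to compound dose-downs in triplicate for 72 hr at 37° C (screening at 10 μM final). Sulfatide quantified by LC-MS/MS (C8 UPLC, isocratic, negative-ion MRM) with C17 SFT internal standard; IC50 from concentration-response curves.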

By IC50 is commonly meant the midpoint of a concentration-inhibition curve. As to `CNC(=O)c1csc2c(C(F)(F)F)c(C)c(OC3CCN(C(=O)OCCOC(F)(F)F)CC3)nc12` [Example 390, 2-(Trifluoromethoxy)ethyl 4-((6-methyl-3-(methylcarbamoyl)-7-(trifluoromethyl)thieno[3,2-b]pyridin-5-yl)oxy)piperidine-1-carboxylate], the IC50 was less than 0.1 µM.

For the compound `CNC(=O)c1csc2c(C(F)(F)F)cc(N3CCC(Oc4cccc(C)n4)CC3)nc12` [Example 145, N-Methyl-5-(4-((6-methylpyridin-2-yl)oxy)piperidin-1-yl)-7-(trifluoromethyl)thieno[3,2-b]pyridine-3-carboxamide], the IC50 is less than 0.1 µM.

Take `CNC(=O)c1csc2c(C(F)(F)F)c(C)c(OC3CCN(C(=O)OC(C)(C)C)CC3)nc12` [Example 389, tert-Butyl 4-((6-methyl-3-(methylcarbamoyl)-7-(trifluoromethyl)thieno[3,2-b]pyridin-5-yl)oxy)piperidine-1-carboxylate]: the IC50 was less than 0.1 µM.

For `CNC(=O)c1csc2c(C(F)(F)F)cc(CC3CCN(C(=O)OC(C)(C)C)CC3)nc12` [Example 634, tert-Butyl 4-((3-(methylcarbamoyl)-7-(trifluoromethyl)thieno[3,2-b]pyridin-5-yl)methyl)piperidine-1-carboxylate], the IC50 is 0.1 to 1 µM.

Take `COC(=O)c1csc2c(C(F)(F)F)cc(N3CCN(CC(=O)NC(C)C)CC3)nc12` [Example 10, Methyl 5-(4-(2-(isopropylamino)-2-oxoethyl)piperazin-1-yl)-7-(trifluoromethyl)thieno[3,2-b]pyridine-3-carboxylate]: the IC50 was less than 0.1 µM.

In the case of `CNC(=O)c1csc2c(C(F)(F)F)cc(N3CC[C@H](OC(=O)NC(C)C)[C@@H](F)C3)nc12` (racemic) [Example 490, (+/−)-tran-3-Fluoro-1-(3-(methylcarbamoyl)-7-(trifluoromethyl)thieno[3,2-b]pyridin-5-yl)piperidin-4-yl isopropylcarbamate], the IC50 was less than 0.1 µM.

With `CNC(=O)c1csc2c(C(F)(F)F)cc(N3CCC(OC(=O)NC(C)C(F)F)CC3)nc12` (stereo not drawn) [Example 670, [1-[3-(Methylcarbamoyl)-7-(trifluoromethyl)thieno[3,2-b]pyridin-5-yl]-4-piperidyl] N-(2,2-difluoro-1-methyl-ethyl)carbamate], the IC50 is less than 0.1 µM.

As for `CNC(=O)c1csc2c(C(F)(F)F)cc(C3CC4(C3)CN(C(=O)OCCOC(F)(F)F)C4)nc12` [Example 576, 2-(Trifluoromethoxy)ethyl 6-(3-(methylcarbamoyl)-7-(trifluoromethyl)thieno[3,2-b]pyridin-5-yl)-2-azaspiro[3.3]heptane-2-carboxylate], the IC50 is less than 0.1 µM.

Take `CNC(=O)c1csc2c(C(F)(F)F)c(C)c(O[C@@H]3CCN(C(=O)O[C@@H](C)C4CC4)[C@H](C)C3)nc12` [Example 866, (S)-1-Cyclopropylethyl (2R,4R)-2-methyl-4-((6-methyl-3-(methylcarbamoyl)-7-(trifluoromethyl)thieno[3,2-b]pyridin-5-yl)oxy)piperidine-1-carboxylate]: the IC50 was less than 0.1 µM.

`CC(C)NC(=O)O[C@H]1CCN(c2cc(C(F)(F)F)c3scc(C(=O)N4CCC4)c3n2)C[C@@H]1F` (racemic) [Example 441, (+/−)-trans-1-(3-(Azetidine-1-carbonyl)-7-(trifluoromethyl)thieno[3,2-b]pyridin-5-yl)-3-fluoropiperidin-4-yl isopropylcarbamate]: the IC50 was less than 0.1 µM.

Take `CNC(=O)c1csc2c(C(F)(F)F)cc(N3CCC(NC(=O)OC(C)C)CC3)nc12` [Example 816, Isopropyl (1-(3-(methylcarbamoyl)-7-(trifluoromethyl)thieno[3,2-b]pyridin-5-yl)piperidin-4-yl)carbamate]: the concentration for half-maximal inhibition (IC50) was less than 0.1 µM.

As for `CNC(=O)c1csc2c(C(F)(F)F)cc(N3CCC(OCCN4CCC(F)(F)C4)CC3)nc12` [Example 361, 5-(4-(2-(3,3-Difluoropyrrolidin-1-yl)ethoxy)piperidin-1-yl)-N-methyl-7-(trifluoromethyl)thieno[3,2-b]pyridine-3-carboxamide], the IC50 was less than 0.1 µM.

`CNC(=O)c1csc2c(C(F)(F)F)cc(N3CC(NC(=O)OC(C)(C)C)C3)nc12` [Example 300, tert-Butyl (1-(3-(methylcarbamoyl)-7-(trifluoromethyl)thieno[3,2-b]pyridin-5-yl)azetidin-3-yl)carbamate]: the IC50 is less than 0.1 µM.

On to `CNC(=O)c1csc2c(C(F)(F)F)cc(O[C@H]3C[C@@H](OC(=O)NC4COC4)C3)nc12` [Example 822, (+/−)-cis-(1S,3S)-3-((3-(Methylcarbamoyl)-7-(trifluoromethyl)thieno[3,2-b]pyridin-5-yl)oxy)cyclobutyl oxetan-3-ylcarbamate], for which the IC50 was 0.1 to 1 µM.

Regarding `CNC(=O)c1csc2c(C(F)(F)F)cc(N3CCC(OC(=O)N[C@H](C)CF)CC3)nc12` [Example 692, [1-[3-(Methylcarbamoyl)-7-(trifluoromethyl)thieno[3,2-b]pyridin-5-yl]-4-piperidyl] N-[(1R)-2-fluoro-1-methyl-ethyl]carbamate], the IC50 is less than 0.1 µM.

Turning to `COC(=O)c1csc2c(C(F)(F)F)cc(N3CCC(NC(=O)OC(C)(C)C)C3)nc12` (stereo not drawn) [Example 659, Methyl 5-[3-(tert-butoxycarbonylamino)pyrrolidin-1-yl]-7-(trifluoromethyl)thieno[3,2-b]pyridine-3-carboxylate], the IC50 was 0.1 to 1 µM.

Take `CNC(=O)c1csc2c(C(F)(F)F)cc(N3CCC(OC(=O)N4CC(OC(F)(F)F)C4)CC3)nc12` [Example 88, 1-(3-(Methylcarbamoyl)-7-(trifluoromethyl)thieno[3,2-b]pyridin-5-yl)piperidin-4-yl 3-(trifluoromethoxy)azetidine-1-carboxylate]: the half-maximal inhibitory concentration (IC50) is less than 0.1 µM.

Turning to `CNC(=O)c1c(C)sc2c(C(F)(F)F)cc(N3CCC(OC(=O)NCC4CC4)CC3)nc12` [Example 415, 1-(2-Methyl-3-(methylcarbamoyl)-7-(trifluoromethyl)thieno[3,2-b]pyridin-5-yl)piperidin-4-yl (cyclopropylmethyl)carbamate], the IC50 was less than 0.1 µM.

Consider `CNC(=O)c1csc2ccc(N3CCC(OC(=O)N[C@@H](C)COC(F)(F)F)CC3)nc12` [Example 142, 1-(3-(Methylcarbamoyl)thieno[3,2-b]pyridin-5-yl)piperidin-4-yl (S)-(1-(trifluoromethoxy)propan-2-yl)carbamate], for which the IC50 was less than 0.1 µM.

Regarding `CNC(=O)c1csc2c(C(F)(F)F)cc(N3CCC(OC(=O)NCC4CC4)CC3)nc12` [Example 474, 1-(3-(Methylcarbamoyl)-7-(trifluoromethyl)thieno[3,2-b]pyridin-5-yl)piperidin-4-yl (cyclopropylmethyl)carbamate], the IC50 was less than 0.1 µM.

`CC[C@H](C)NC(=O)OC1CCN(c2cc(C(F)(F)F)c3scc(C(=O)NC)c3n2)CC1` [Example 63, 1-(3-(Methylcarbamoyl)-7-(trifluoromethyl)thieno[3,2-b]pyridin-5-yl)piperidin-4-yl (S)-sec-butylcarbamate]: the IC50 was less than 0.1 µM.

Take `CNC(=O)c1csc2c(C(F)(F)F)cc(N3CCC(NC(=O)O[C@H]4CCN(C)[C@H]4C)CC3)nc12` [Example 809, (2S,3S)-1,2-Dimethylpyrrolidin-3-yl (1-(3-(methylcarbamoyl)-7-(trifluoromethyl)thieno[3,2-b]pyridin-5-yl)piperidin-4-yl)carbamate]: the IC50 was greater than 1 µM.

As to `COC(=O)c1csc2c(C(F)(F)F)cc(N3CCC(OC(=O)NCC4CC4)CC3)nc12` [Example 428, Methyl 5-(4-(((cyclopropylmethyl)carbamoyl)oxy)piperidin-1-yl)-7-(trifluoromethyl)thieno[3,2-b]pyridine-3-carboxylate], the IC50 was less than 0.1 µM.

For `CNC(=O)c1csc2c(C(F)(F)F)cc(O[C@@H]3CCN(C(=O)O[C@@H](C)COC(F)(F)F)[C@H](C)C3)nc12` [Example 175, (S)-1-(Trifluoromethoxy)propan-2-yl (2R,4R)-2-methyl-4-((3-(methylcarbamoyl)-7-(trifluoromethyl)thieno[3,2-b]pyridin-5-yl)oxy)piperidine-1-carboxylate], the IC50 was less than 0.1 µM.

With `CNC(=O)c1csc2c(C(F)(F)F)cc(N3CC4(CN(C(=O)OC(C)CC#N)C4)C3)nc12` (stereo not drawn) [Example 350, 1-Cyanopropan-2-yl 6-(3-(methylcarbamoyl)-7-(trifluoromethyl)thieno[3,2-b]pyridin-5-yl)-2,6-diazaspiro[3.3]heptane-2-carboxylate], the IC50 is less than 0.1 µM.

In the case of `CNC(=O)c1csc2c(C(F)(F)F)cc(O[C@H]3CCN(C(=O)OCCOC(F)(F)F)C3)nc12` [Example 600, 2-(Trifluoromethoxy)ethyl (S)-3-((3-(methylcarbamoyl)-7-(trifluoromethyl)thieno[3,2-b]pyridin-5-yl)oxy)pyrrolidine-1-carboxylate], the IC50 was less than 0.1 µM.

As for `CNC(=O)c1csc2c(C(F)(F)F)cc(N3CC4(CN(C(=O)OC5COC5)C4)C3)nc12` [Example 339, Oxetan-3-yl 6-(3-(methylcarbamoyl)-7-(trifluoromethyl)thieno[3,2-b]pyridin-5-yl)-2,6-diazaspiro[3.3]heptane-2-carboxylate], the IC50 was less than 0.1 µM.
